{"source": "paper PMC4844702", "about": "“Selective inhibition of the kinase DYRK1A by targeting its folding process” (Nature Communications, 2016)", "test_in_all_cases": "Kinase panel (Carna)", "type_in_all_cases": "biochemical", "key": {"CDK2/CycE1": {"target": "T1, CDK2/CycE1 (Homo sapiens, UniProt P24941)", "T1 construct": "purchased Carna Biosciences", "description": "(§1) Detailed information on the assay conditions is available on the website of Carna Biosciences (http://www.carnabio.com)."}, "BRK": {"target": "T2, BRK (Homo sapiens, UniProt Q13882)", "T2 construct": "purchased Carna Biosciences", "description": "as §1"}, "MAPKAPK3": {"target": "T3, MAPKAPK3 (Homo sapiens, UniProt Q16644)", "T3 construct": "purchased Carna Biosciences", "T3 sequence (Q16644 whole entry)": "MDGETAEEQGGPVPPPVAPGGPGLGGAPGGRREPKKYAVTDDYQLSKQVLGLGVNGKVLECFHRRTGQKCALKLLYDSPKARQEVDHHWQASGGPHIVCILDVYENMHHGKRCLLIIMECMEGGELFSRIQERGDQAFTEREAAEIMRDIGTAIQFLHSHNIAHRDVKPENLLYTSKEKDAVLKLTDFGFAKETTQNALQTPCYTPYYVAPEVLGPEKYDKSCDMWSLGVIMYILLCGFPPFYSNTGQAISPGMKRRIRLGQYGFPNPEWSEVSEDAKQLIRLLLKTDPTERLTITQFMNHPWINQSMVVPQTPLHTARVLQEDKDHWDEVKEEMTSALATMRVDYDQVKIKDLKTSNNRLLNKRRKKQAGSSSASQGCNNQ"}, "MAP3K1_Cascade": {"target": "T4, MAP3K1_Cascade (Homo sapiens, UniProt Q13233)", "T4 construct": "purchased Carna Biosciences", "T4 sequence (Q13233 whole entry)": "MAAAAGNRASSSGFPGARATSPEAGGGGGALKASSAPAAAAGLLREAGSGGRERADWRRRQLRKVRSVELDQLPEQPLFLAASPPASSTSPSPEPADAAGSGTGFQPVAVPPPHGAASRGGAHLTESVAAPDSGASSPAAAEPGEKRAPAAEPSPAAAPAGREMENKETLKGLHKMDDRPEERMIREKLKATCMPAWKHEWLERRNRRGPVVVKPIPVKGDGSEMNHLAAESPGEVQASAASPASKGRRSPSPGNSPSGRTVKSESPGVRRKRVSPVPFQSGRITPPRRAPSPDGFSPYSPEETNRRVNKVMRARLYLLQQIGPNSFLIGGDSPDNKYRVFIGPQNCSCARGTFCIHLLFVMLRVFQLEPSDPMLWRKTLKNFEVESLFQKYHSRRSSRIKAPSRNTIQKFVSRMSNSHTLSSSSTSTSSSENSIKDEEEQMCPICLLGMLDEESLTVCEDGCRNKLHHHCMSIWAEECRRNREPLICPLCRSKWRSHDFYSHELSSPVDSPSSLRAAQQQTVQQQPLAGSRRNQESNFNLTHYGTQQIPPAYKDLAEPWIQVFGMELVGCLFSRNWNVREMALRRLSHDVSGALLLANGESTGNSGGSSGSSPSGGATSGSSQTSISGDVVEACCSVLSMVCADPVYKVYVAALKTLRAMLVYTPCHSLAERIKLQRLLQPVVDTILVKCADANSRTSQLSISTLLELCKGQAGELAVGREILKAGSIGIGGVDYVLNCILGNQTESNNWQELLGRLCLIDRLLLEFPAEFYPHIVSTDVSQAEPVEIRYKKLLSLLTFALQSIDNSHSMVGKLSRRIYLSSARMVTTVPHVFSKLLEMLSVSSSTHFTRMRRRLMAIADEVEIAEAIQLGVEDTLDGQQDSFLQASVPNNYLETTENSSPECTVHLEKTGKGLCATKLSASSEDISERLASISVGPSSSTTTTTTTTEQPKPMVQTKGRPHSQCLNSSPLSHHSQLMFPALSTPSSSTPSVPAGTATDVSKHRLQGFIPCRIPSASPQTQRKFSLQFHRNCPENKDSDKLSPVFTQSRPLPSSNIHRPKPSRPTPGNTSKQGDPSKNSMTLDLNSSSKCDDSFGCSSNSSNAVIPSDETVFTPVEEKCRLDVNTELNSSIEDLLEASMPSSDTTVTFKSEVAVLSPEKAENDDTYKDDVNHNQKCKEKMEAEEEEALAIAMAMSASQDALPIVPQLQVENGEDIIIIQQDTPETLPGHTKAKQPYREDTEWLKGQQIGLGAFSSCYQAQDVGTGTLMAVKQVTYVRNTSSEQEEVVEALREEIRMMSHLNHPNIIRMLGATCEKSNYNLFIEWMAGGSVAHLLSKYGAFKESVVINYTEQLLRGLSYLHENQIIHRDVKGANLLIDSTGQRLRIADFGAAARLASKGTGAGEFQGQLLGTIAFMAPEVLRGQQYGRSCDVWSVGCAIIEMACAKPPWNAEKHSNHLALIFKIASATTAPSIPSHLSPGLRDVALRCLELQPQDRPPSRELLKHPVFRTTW", "description": "as §1"}, "INSR": {"target": "T5, INSR (Homo sapiens, UniProt P06213)", "T5 construct": "purchased Carna Biosciences", "description": "as §1"}, "MET": {"target": "T6, MET (Homo sapiens, UniProt P08581)", "T6 construct": "purchased Carna Biosciences", "description": "as §1"}, "MAP4K2": {"target": "T7, MAP4K2 (Homo sapiens, UniProt Q12851)", "T7 construct": "purchased Carna Biosciences", "description": "as §1"}, "WNK3": {"target": "T8, WNK3 (Homo sapiens, UniProt Q9BYP7)", "T8 construct": "purchased Carna Biosciences", "description": "as §1"}, "BRAF_Cascade": {"target": "T9, BRAF_Cascade (Homo sapiens, UniProt P15056)", "T9 construct": "purchased Carna Biosciences", "description": "as §1"}, "RAF1_Cascade": {"target": "T10, RAF1_Cascade (Homo sapiens, UniProt P04049)", "T10 construct": "purchased Carna Biosciences"}, "CDC7/ASK": {"target": "T11, CDC7/ASK (Homo sapiens, UniProt O00311)", "T11 construct": "purchased Carna Biosciences", "description": "as §1"}, "MRCKβ": {"target": "T12, MRCKβ (Homo sapiens, UniProt Q9Y5S2)", "T12 construct": "purchased Carna Biosciences"}, "AMPKα1/β1/γ1": {"target": "T13, AMPKα1/β1/γ1 (Homo sapiens, UniProt Q13131)", "T13 construct": "purchased Carna Biosciences", "description": "as §1"}, "EPHA5": {"target": "T14, EPHA5 (Homo sapiens, UniProt P54756)", "T14 construct": "purchased Carna Biosciences"}, "MER": {"target": "T15, MER (Homo sapiens, UniProt Q12866)", "T15 construct": "purchased Carna Biosciences", "description": "as §1"}, "MARK3": {"target": "T16, MARK3 (Homo sapiens, UniProt P27448)", "T16 construct": "purchased Carna Biosciences", "description": "as §1"}, "MAP2K4_Cascade": {"target": "T17, MAP2K4_Cascade (Homo sapiens, UniProt P45985)", "T17 construct": "purchased Carna Biosciences"}, "p38β": {"target": "T18, p38β (Homo sapiens, UniProt Q15759)", "T18 construct": "purchased Carna Biosciences", "description": "as §1"}, "MSSK1": {"target": "T19, MSSK1 (Homo sapiens, UniProt Q9UPE1)", "T19 construct": "purchased Carna Biosciences", "description": "as §1"}, "JNK3": {"target": "T20, JNK3 (Homo sapiens, UniProt P53779)", "T20 construct": "purchased Carna Biosciences"}, "LYNb": {"target": "T21, LYNb (Homo sapiens, UniProt P07948)", "T21 construct": "purchased Carna Biosciences", "description": "as §1"}, "TYK2": {"target": "T22, TYK2 (Homo sapiens, UniProt P29597)", "T22 construct": "purchased Carna Biosciences", "description": "as §1"}, "CDK7/CycH/MAT1": {"target": "T23, CDK7/CycH/MAT1 (Homo sapiens, UniProt P50613)", "T23 construct": "purchased Carna Biosciences", "description": "as §1"}, "SGK": {"target": "T24, SGK (Homo sapiens, UniProt O00141)", "T24 construct": "purchased Carna Biosciences"}, "NEK4": {"target": "T25, NEK4 (Homo sapiens, UniProt P51957)", "T25 construct": "purchased Carna Biosciences"}, "PDGFRα": {"target": "T26, PDGFRα (Homo sapiens, UniProt P16234)", "T26 construct": "purchased Carna Biosciences", "description": "as §1"}, "RSK2": {"target": "T27, RSK2 (Homo sapiens, UniProt P51812)", "T27 construct": "purchased Carna Biosciences"}, "p38α": {"target": "T28, p38α (Homo sapiens, UniProt Q16539)", "T28 construct": "purchased Carna Biosciences", "T28 sequence (Q16539 whole entry)": "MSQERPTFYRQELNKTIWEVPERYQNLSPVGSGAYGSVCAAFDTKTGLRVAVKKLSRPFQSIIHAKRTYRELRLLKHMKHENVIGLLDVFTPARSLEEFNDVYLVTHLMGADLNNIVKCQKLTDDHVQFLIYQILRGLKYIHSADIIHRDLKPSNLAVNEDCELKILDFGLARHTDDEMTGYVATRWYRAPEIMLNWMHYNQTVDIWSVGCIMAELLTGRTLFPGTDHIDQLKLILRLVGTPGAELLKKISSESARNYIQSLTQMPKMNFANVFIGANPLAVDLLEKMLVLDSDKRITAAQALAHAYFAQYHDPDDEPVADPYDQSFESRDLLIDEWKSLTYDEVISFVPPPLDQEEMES", "description": "as §1"}, "PDHK4": {"target": "T29, PDHK4 (Homo sapiens, UniProt Q16654)", "T29 construct": "purchased Carna Biosciences", "description": "as §1"}, "TRKB": {"target": "T30, TRKB (Homo sapiens, UniProt Q16620)", "T30 construct": "purchased Carna Biosciences", "description": "as §1"}, "TAOK2": {"target": "T31, TAOK2 (Homo sapiens, UniProt Q9UL54)", "T31 construct": "purchased Carna Biosciences", "description": "as §1"}, "SPHK2": {"target": "T32, SPHK2 (Homo sapiens, UniProt Q9NRA0)", "T32 construct": "purchased Carna Biosciences", "description": "as §1"}, "CHK2": {"target": "T33, CHK2 (Homo sapiens, UniProt O96017)", "T33 construct": "purchased Carna Biosciences", "T33 sequence (O96017 whole entry)": "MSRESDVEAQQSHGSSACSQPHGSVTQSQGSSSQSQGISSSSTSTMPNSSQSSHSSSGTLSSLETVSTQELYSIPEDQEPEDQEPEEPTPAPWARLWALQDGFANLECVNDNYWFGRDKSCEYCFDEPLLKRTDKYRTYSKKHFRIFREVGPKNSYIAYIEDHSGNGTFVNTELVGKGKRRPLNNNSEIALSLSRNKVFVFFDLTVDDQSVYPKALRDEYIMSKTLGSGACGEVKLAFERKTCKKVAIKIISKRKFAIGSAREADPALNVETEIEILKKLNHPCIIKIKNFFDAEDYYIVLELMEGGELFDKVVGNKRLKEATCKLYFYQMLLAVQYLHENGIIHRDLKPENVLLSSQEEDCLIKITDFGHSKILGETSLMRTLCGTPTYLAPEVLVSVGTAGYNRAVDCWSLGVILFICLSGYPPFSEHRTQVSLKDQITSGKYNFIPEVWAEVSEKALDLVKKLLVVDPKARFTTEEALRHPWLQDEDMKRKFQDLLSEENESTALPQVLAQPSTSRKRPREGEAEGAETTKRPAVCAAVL"}, "CK1δ": {"target": "T34, CK1δ (Homo sapiens, UniProt P48730)", "T34 construct": "purchased Carna Biosciences"}, "MST1": {"target": "T35, MST1 (Homo sapiens, UniProt Q13043)", "T35 construct": "purchased Carna Biosciences", "description": "as §1"}, "TYRO3": {"target": "T36, TYRO3 (Homo sapiens, UniProt Q06418)", "T36 construct": "purchased Carna Biosciences", "description": "as §1"}, "PKCδ": {"target": "T37, PKCδ (Homo sapiens, UniProt Q05655)", "T37 construct": "purchased Carna Biosciences", "description": "as §1"}, "LTK": {"target": "T38, LTK (Homo sapiens, UniProt P29376)", "T38 construct": "purchased Carna Biosciences", "T38 sequence (P29376 17-864)": "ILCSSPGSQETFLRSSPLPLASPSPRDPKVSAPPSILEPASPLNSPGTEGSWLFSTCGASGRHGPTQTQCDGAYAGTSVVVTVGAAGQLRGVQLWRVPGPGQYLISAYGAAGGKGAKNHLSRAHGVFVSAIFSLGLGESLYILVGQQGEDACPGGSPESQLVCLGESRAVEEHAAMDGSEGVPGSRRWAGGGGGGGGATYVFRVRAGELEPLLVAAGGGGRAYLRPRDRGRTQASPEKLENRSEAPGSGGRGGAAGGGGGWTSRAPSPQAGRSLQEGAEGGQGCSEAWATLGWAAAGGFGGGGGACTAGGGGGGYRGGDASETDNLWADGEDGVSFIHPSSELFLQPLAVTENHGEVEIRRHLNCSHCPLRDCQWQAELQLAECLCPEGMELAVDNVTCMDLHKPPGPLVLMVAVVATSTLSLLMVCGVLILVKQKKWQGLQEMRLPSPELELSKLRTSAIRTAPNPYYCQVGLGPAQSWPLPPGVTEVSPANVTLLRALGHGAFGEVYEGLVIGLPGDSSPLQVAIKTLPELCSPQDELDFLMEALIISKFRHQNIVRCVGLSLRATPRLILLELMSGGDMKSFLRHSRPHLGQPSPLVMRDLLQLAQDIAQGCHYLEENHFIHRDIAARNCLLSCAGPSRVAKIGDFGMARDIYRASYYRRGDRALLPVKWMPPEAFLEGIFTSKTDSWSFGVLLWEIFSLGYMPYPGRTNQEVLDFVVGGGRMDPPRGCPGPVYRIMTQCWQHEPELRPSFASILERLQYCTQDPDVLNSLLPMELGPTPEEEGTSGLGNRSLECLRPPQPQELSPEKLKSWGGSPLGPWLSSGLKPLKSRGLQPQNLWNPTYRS", "description": "as §1"}, "CDK2/CycA2": {"target": "T39, CDK2/CycA2 (Homo sapiens, UniProt P24941)", "T39 construct": "purchased Carna Biosciences", "description": "as §1"}, "SIK": {"target": "T40, SIK (Homo sapiens, UniProt P57059)", "T40 construct": "purchased Carna Biosciences"}, "GSK3α": {"target": "T41, GSK3α (Homo sapiens, UniProt P49840)", "T41 construct": "purchased Carna Biosciences", "T41 sequence (P49840 whole entry)": "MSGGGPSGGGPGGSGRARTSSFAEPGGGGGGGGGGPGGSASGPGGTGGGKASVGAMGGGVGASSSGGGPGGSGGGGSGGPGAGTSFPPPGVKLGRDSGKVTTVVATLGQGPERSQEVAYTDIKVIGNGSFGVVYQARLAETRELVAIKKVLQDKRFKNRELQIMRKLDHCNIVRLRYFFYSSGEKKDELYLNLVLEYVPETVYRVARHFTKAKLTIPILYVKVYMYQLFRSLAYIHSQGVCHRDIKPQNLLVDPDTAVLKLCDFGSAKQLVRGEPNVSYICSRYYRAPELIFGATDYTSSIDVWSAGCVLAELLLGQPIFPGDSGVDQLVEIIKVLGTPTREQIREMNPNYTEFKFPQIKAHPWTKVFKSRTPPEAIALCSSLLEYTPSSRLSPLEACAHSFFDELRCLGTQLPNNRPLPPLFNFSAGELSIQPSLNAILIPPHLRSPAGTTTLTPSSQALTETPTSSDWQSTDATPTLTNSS"}, "PIM3": {"target": "T42, PIM3 (Homo sapiens, UniProt Q86V86)", "T42 construct": "purchased Carna Biosciences", "conditions": "10 µM FINDY"}, "FGFR2": {"target": "T43, FGFR2 (Homo sapiens, UniProt P21802)", "T43 construct": "purchased Carna Biosciences"}, "MARK4": {"target": "T44, MARK4 (Homo sapiens, UniProt Q96L34)", "T44 construct": "purchased Carna Biosciences", "T44 sequence (Q96L34 whole entry)": "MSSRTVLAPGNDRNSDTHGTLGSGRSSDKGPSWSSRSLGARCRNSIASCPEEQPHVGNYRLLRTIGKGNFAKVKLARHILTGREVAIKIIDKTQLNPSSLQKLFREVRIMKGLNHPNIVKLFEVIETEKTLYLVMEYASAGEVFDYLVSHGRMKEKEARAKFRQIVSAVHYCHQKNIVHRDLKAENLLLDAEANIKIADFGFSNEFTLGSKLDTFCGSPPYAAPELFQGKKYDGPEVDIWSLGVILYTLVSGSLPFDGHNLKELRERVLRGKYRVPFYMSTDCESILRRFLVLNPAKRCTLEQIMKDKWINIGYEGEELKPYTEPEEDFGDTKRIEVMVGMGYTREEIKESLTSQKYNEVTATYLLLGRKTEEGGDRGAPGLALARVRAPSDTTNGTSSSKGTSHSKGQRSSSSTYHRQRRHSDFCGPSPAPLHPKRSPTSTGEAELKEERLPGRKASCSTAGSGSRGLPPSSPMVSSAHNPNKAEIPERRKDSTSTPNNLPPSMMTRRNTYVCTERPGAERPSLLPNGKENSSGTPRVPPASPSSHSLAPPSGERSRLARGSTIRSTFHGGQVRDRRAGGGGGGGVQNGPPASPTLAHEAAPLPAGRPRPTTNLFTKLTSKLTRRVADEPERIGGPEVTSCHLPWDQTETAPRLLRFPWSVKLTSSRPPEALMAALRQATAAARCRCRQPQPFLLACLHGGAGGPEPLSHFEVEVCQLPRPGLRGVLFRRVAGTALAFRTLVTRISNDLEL", "conditions": "10 µM FINDY", "description": "as §1"}}, "data": [{"compound": "COc1ccc(/C=C2\\SC(=S)NC2=O)cc1C#C[Si](C)(C)C", "note": "[FINDY]", "values": [{"measurement": "inhibition at 10 µM", "setting": "CDK2/CycE1", "result": 64.9, "unit": "%"}, {"measurement": "inhibition at 10 µM", "setting": "BRK", "result": 3, "unit": "%"}, {"measurement": "inhibition at 10 µM", "setting": "MAPKAPK3", "result": 29.2, "unit": "%"}, {"measurement": "inhibition at 10 µM", "setting": "MAP3K1_Cascade", "result": 44.4, "unit": "%"}, {"measurement": "inhibition at 10 µM", "setting": "INSR", "result": -1.3, "unit": "%"}, {"measurement": "inhibition at 10 µM", "setting": "MET", "result": 12.4, "unit": "%"}, {"measurement": "inhibition at 10 µM", "setting": "MAP4K2", "result": 3.3, "unit": "%"}, {"measurement": "inhibition at 10 µM", "setting": "WNK3", "result": 18.9, "unit": "%"}, {"measurement": "inhibition at 10 µM", "setting": "BRAF_Cascade", "result": 33.9, "unit": "%"}, {"measurement": "inhibition at 10 µM", "setting": "RAF1_Cascade", "result": 50.9, "unit": "%"}, {"measurement": "inhibition at 10 µM", "setting": "CDC7/ASK", "result": 14.1, "unit": "%"}, {"measurement": "inhibition at 10 µM", "setting": "MRCKβ", "result": 0.1, "unit": "%"}, {"measurement": "inhibition at 10 µM", "setting": "AMPKα1/β1/γ1", "result": 8.6, "unit": "%"}, {"measurement": "inhibition at 10 µM", "setting": "EPHA5", "result": 18.4, "unit": "%"}, {"measurement": "inhibition at 10 µM", "setting": "MER", "result": 3.4, "unit": "%"}, {"measurement": "inhibition at 10 µM", "setting": "MARK3", "result": 50.6, "unit": "%"}, {"measurement": "inhibition at 10 µM", "setting": "MAP2K4_Cascade", "result": 6.4, "unit": "%"}, {"measurement": "inhibition at 10 µM", "setting": "p38β", "result": 11.2, "unit": "%"}, {"measurement": "inhibition at 10 µM", "setting": "MSSK1", "result": 6.6, "unit": "%"}, {"measurement": "inhibition at 10 µM", "setting": "JNK3", "result": 4.5, "unit": "%"}, {"measurement": "inhibition at 10 µM", "setting": "LYNb", "result": 11.4, "unit": "%"}, {"measurement": "inhibition at 10 µM", "setting": "TYK2", "result": -5.4, "unit": "%"}, {"measurement": "inhibition at 10 µM", "setting": "CDK7/CycH/MAT1", "result": 15.2, "unit": "%"}, {"measurement": "inhibition at 10 µM", "setting": "SGK", "result": 27.8, "unit": "%"}, {"measurement": "inhibition at 10 µM", "setting": "NEK4", "result": 6.8, "unit": "%"}, {"measurement": "inhibition at 10 µM", "setting": "PDGFRα", "result": 14.8, "unit": "%"}, {"measurement": "inhibition at 10 µM", "setting": "RSK2", "result": 39.9, "unit": "%"}, {"measurement": "inhibition at 10 µM", "setting": "p38α", "result": 10.6, "unit": "%"}, {"measurement": "inhibition at 10 µM", "setting": "PDHK4", "result": 14.8, "unit": "%"}, {"measurement": "inhibition at 10 µM", "setting": "TRKB", "result": 4.9, "unit": "%"}, {"measurement": "inhibition at 10 µM", "setting": "TAOK2", "result": -1.2, "unit": "%"}, {"measurement": "inhibition at 10 µM", "setting": "SPHK2", "result": 4.9, "unit": "%"}, {"measurement": "inhibition at 10 µM", "setting": "CHK2", "result": 6.3, "unit": "%"}, {"measurement": "inhibition at 10 µM", "setting": "CK1δ", "result": 29.1, "unit": "%"}, {"measurement": "inhibition at 10 µM", "setting": "MST1", "result": -5.2, "unit": "%"}, {"measurement": "inhibition at 10 µM", "setting": "TYRO3", "result": 2.9, "unit": "%"}, {"measurement": "inhibition at 10 µM", "setting": "PKCδ", "result": -1.3, "unit": "%"}, {"measurement": "inhibition at 10 µM", "setting": "LTK", "result": 4.6, "unit": "%"}, {"measurement": "inhibition at 10 µM", "setting": "CDK2/CycA2", "result": 31.3, "unit": "%"}, {"measurement": "inhibition at 10 µM", "setting": "SIK", "result": 15, "unit": "%"}, {"measurement": "inhibition at 10 µM", "setting": "GSK3α", "result": 43.4, "unit": "%"}, {"measurement": "inhibition at 10 µM", "setting": "PIM3", "result": 83.1, "unit": "%"}, {"measurement": "inhibition at 10 µM", "setting": "FGFR2", "result": 19.7, "unit": "%"}, {"measurement": "inhibition at 10 µM", "setting": "MARK4", "result": 79.8, "unit": "%"}]}]}
